Measured values as given in US20250381200A1, “SINGLE-INJECTION METHODS AND FORMULATIONS TO CONTROL THE ONSET OF ESTRUS AND OVULATION IN BOVINE, CAPRINE, OVINE, CAMELID AND OTHER FEMALE ANIMALS” (Therio, LLC, priority 2024, published 2025).
Read-outs that look alike come from different tables or passages of the source.

How the values were obtained:
[1] = bovine, in vivo
[2] = bovine, in vivo; remark: listed apart in the source

Q: For `CC(=O)[C@H]1CC[C@H]2[C@@H]3CCC4=CC(=O)CC[C@]4(C)[C@H]3CC[C@]12C` [P4, progesterone], which “P4 concentration in the blood stream after decrease” value [1] is on record?
A: 0.2 to 0.6 ng/mL

Q: What about the “P4 concentration in the blood stream, achieved and maintained” value [1] of the same compound?
A: 2.0 to 3.0 ng/mL

Q: And the “P4 concentration in the blood stream after decrease” value [2]?
A: 1.0-1.5 ng per ml

Q: What about the “P4 concentration in the blood stream, achieved within 12 hours and maintained” value [2] of the same compound?
A: 2.0 to 3.0 ng/mL
